Data published in patent publication US10766862B2, “Crystal form and salt form of and preparation method for tyrosine kinase inhibitor” (GUANGDONG RAYNOVENT BIOTECH CO., LTD., priority 2016, dated 2020).

Experiments:
VEGFR2 = biological target: T1, VEGFR2 (Homo sapiens, UniProt P35968); assay: Z'-LYTE Detection Kinase Assay, VEGFR2 enzyme reaction; format: biochemical
T1 construct: purchased Life technology
From the text: (§1) It is to evaluate the inhibitory effect of the compound on three kinases VEGFR2, FGFR1, PDGFRB by detecting the enzyme activity in accordance with Z′-LYTE™ Detection Kinase Assay and using the ICso value of the compound as the index.
(§2) Recombinant human VEGFR2 and FGFR1 proteins are purchased from Life technology, and PDGFRB proteinase is purchased from Millipore.
(§3) Z-LYTE™ Kit Tyr1 and Tyr4 are purchased from Life technology.
(§4) Read with Multimode Microplate Reader Envision (PerkinElmer).
(§5) The compound to be test was subject to a 3-fold concentration gradient dilution to 11 final concentrations ranging from 10 μM to 0.17 nM 11 with two duplicate wells per concentration. The concentration of DMSO was 1% in the test reaction.
3 nM VEGFR2 protein kinase, 2 μM Tyr1 peptide, 100 μM ATP, 50 mM HEPES (pH 7.5), 10 mM MgCl2, 1 mM EGTA, 0.01% BRIJ-35. The test plate is Black Proxiplate 384-Plus plate (PerkinElmer). The reaction runs at room temperature for 60 minutes, and the reaction system is 10 μL.
(§6) 5 μL of DV reagent B (1:128) was added to the kinase reaction mixture to stopped the reaction. The reaction mixture was incubated at 23° C. for 60 minutes, and read by Envision.
(§7) The data were converted to the phosphorylation rate and the inhibition rate. The parameter curve was fitted (Model 205 in XLFIT5, iDBS) to obtain the ICso data of the compound.

FGFR1 = biological target: T2, FGFR1 (Homo sapiens, UniProt P11362); assay: Z'-LYTE Detection Kinase Assay, FGFR1 enzyme reaction; format: biochemical
T2 construct: purchased Life technology
T2 sequence (P11362 22-822): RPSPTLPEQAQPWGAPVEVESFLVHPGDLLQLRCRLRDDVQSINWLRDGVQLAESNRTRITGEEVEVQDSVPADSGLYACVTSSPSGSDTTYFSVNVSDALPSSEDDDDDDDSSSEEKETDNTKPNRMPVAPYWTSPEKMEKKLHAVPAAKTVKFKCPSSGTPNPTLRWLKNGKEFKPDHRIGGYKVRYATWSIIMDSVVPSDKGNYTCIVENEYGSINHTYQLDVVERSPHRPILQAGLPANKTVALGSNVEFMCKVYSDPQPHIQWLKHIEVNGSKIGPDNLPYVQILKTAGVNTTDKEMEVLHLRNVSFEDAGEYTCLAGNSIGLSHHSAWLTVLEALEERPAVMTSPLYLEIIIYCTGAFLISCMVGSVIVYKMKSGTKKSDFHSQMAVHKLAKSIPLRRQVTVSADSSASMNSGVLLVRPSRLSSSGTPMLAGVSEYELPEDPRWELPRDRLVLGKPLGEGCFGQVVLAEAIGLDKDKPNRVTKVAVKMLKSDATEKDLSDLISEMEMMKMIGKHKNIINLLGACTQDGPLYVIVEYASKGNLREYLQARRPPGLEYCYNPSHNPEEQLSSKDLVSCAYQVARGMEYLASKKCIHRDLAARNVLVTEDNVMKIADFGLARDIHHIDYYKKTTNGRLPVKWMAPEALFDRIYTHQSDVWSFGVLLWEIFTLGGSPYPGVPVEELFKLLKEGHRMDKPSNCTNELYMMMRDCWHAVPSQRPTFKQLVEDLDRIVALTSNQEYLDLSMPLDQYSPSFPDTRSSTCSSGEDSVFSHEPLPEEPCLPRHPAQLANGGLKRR
From the text: as §1, §2, §3, §4, §5
1 nM FGFR1 protein kinase, 2 μM Tyr4 peptide, 25 μM ATP, 50 mM HEPES (pH 7.5), 10 mM MgCl2, 1 mM EGTA, 0.01% BRIJ-35, 2 mM MnCl2, 1 mM DTT. The test plate is Black Proxiplate 384-Plus plate (PerkinElmer). The reaction runs at room temperature for 60 minutes, and the reaction system is 10 μL.
as §6, §7

PDGFRB = biological target: T3, PDGFRB (Homo sapiens, UniProt P09619); assay: Z'-LYTE Detection Kinase Assay, PDGFRB enzyme reaction; format: biochemical
T3 construct: purchased Millipore
T3 sequence (P09619 33-1106): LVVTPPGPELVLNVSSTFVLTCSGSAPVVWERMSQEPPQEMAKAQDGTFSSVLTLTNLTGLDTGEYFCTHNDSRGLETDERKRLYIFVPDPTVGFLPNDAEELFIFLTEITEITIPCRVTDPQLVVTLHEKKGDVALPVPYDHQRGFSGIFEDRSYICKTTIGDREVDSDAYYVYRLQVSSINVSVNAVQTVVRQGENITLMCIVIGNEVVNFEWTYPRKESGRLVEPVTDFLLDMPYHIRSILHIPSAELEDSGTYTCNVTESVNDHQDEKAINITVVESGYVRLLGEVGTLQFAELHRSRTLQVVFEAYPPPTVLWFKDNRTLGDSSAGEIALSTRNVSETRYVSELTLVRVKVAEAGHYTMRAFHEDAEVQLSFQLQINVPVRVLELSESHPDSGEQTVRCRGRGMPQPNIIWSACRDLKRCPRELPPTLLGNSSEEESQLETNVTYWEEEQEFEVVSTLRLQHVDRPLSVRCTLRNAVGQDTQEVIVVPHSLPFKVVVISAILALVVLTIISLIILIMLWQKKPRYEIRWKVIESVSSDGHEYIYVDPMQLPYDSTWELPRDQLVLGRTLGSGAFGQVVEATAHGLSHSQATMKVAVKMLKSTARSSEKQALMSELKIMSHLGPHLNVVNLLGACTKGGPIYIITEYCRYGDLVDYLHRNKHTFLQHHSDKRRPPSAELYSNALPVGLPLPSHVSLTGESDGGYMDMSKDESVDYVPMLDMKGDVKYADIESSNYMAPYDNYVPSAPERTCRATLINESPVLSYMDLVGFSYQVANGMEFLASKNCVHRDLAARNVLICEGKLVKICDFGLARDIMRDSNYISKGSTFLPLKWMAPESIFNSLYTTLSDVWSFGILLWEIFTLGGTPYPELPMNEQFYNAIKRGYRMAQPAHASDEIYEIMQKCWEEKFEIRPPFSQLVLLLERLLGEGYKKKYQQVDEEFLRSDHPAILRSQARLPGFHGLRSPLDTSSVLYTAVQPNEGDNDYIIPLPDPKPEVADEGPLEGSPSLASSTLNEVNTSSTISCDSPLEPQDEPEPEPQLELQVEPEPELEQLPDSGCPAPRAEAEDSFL
From the text: as §1, §2, §3, §4, §5
40 nM PDGFRB protein kinase, 2 μM Tyr4 peptide, 100 μM ATP, 50 mM HEPES (pH 7.5), 10 mM MgCl2, 1 mM EGTA, 0.01% BRIJ-35, 2 mM MnCl2, 1 mM DTT. The test plate is Black Proxiplate 384-Plus plate (PerkinElmer). The reaction runs at room temperature for 60 minutes, and the reaction system is […].
as §6, §7

HUVEC = assay: CellTiter-Glo Luminescent Cell Viability Assay on HUVEC stimulated with hVEGF-165; format: cell-based; conditions: Homo sapiens, hVEGF-165 20 ng/ml, 72 hr
Method: It is to detect the intracellular ATP change by CellTiter-Glo® Luminescent Cell Viability Assay, and evaluate the inhibitory effect of the compound on in vitro cell HUVEC with ICso value of the compound as the index.
HUVEC cell lines (ATCC), EGM-2 BulletKit (Lonza), hVEGF-165 (Cell Signaling), pancreatin (Invitrogen), DPBS (Hyclone), 384-well cell plate (Greiner), 384-well compound plate (Greiner), CO2 incubator (Thermo), centrifuger (Eppendorf), Vi-cell Cell Count (Beckman Coulter), Bravo Automated Liquid Handing Platform (Agilent), Envision (Perkin Elmer)
Test Method • A. Cells recovery and growth. • B. Cell planking: HUVEC cells were re-suspended with a fasted media (containing only 2% FBS and 0.1% GA-1000), and diluted to a concentration of 20,000/mL. The diluted cells were added into 384-well plate (Greiner) with 50 μL/well. The cell plate was placed in an incubator containing 5% CO2 at 37° C. overnight. • C. Compound Addition: The compound to be tested was subject to a 4-fold gradient dilution to 10 samples having a final concentration ranging from 10 μM to 0.038 nM with two duplicate wells per concentration. […] The mixture was incubated at room temperature for 10-30 minutes, and read with Envision. […]

[1] = 100 μM ATP, 60 minutes, room temperature

T1 sequence (P35968 20-1356): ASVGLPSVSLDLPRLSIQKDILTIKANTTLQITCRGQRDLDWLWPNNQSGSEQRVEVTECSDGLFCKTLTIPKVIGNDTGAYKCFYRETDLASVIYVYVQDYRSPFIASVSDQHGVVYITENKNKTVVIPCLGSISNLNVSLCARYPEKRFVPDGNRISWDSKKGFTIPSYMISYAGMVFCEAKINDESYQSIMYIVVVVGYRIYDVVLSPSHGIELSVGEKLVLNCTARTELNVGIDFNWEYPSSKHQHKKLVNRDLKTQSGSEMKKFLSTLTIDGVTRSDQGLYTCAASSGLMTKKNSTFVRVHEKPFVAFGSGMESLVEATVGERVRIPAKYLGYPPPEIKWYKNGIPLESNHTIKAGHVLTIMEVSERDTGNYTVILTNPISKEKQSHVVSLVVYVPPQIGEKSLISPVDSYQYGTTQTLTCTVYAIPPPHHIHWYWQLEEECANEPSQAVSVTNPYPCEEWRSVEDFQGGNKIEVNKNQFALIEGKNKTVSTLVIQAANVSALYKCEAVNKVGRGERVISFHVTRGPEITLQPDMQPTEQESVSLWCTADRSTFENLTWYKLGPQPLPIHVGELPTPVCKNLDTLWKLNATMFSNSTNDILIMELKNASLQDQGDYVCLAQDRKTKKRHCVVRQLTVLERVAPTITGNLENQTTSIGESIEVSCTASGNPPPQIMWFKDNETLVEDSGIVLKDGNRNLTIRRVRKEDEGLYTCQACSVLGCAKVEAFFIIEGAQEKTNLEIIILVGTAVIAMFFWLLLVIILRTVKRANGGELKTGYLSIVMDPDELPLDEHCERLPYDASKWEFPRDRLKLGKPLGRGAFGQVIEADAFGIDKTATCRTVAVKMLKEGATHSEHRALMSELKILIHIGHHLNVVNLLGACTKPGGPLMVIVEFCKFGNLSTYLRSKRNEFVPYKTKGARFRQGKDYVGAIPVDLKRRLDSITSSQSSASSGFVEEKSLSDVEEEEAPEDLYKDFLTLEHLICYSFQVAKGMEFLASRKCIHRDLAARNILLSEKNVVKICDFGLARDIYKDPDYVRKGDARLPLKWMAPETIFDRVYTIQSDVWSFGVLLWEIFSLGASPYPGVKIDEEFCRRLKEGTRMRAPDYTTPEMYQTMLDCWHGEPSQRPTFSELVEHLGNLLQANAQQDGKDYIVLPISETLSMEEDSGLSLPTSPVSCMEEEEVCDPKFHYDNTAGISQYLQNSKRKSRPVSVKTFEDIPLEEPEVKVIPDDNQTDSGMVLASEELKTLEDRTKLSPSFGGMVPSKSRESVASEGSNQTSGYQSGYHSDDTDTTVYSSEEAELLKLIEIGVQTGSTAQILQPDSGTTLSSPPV

`COc1cc2nccc(Oc3ccc(NC(=S)NC4CC4)c(Cl)c3F)c2cc1C(N)=O` [Compound 1] was tested, and the “Inhibitory activity on VEGFR2 in vitro, conclusion in words” value (VEGFR2) was “superior inhibitory activity”, the IC50 (VEGFR2; [1]) was less than 50 nM and the “Inhibitory activity on FGFR1 in vitro, conclusion in words” value (FGFR1) was “superior inhibitory activity”. The IC50 (FGFR1; 25 μM ATP, 60 minutes, room temperature) was 50 to 200 nM, the “Inhibitory activity on PDGFRB in vitro, conclusion in words” value (PDGFRB) was “superior inhibitory activity” and the IC50 (PDGFRB; [1]) was less than 50 nM. It also gave an IC50 (HUVEC) of less than 100 nM.
